# Reference: ChEMBL document CHEMBL5604062, “ASAP - ZIKV NS2B-NS3 protease fluorescence dose response” (2024)
# Where “and” joins values, the source holds several entries; their conditions need not be identical. Equal entries are not always repeated.
# Target: Nonstructural protein 3 (Zika virus, UniProt A0A024AXB9)
# Test: Functional biochemical assay to identify treatments for viral infectious disease that targets Zika NS2B-NS3 protease. Utilizing a direct enzyme activity measurement method, reading the fluorescence intensity is used to characterize the relative potency of inhibitors as IC50.
# Set-up: species or system PRVABC59
# Sequence of Nonstructural protein 3 (A0A024AXB9 whole entry): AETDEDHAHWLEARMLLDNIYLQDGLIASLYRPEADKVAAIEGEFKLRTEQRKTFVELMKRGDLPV
row,IC50,SMILES
1,14 µM,NCc1cccc(NC(=O)[C@@H](NC(=O)OCc2ccccc2)c2ccc(-c3cccc4c3CCO4)cc2)c1
2,> 24.9 µM,CC1CCN(CCCCNC(=O)C2CCN(c3ccc(C=O)cc3)CC2)CC1
3,38.1 µM,COc1cc(C(=O)Nc2cccc(CN)c2)cc(NC(=O)OCc2ccccc2)c1Cl
4,40.3 µM,O=C(O)c1cc2cc(-c3cc(Cl)cc4ncccc34)ccc2[nH]1
5,38.9 µM,NCc1cccc(NC(=O)[C@@H](NC(=O)OCc2ccccc2)c2ccc(-c3ccncc3F)cc2)c1
6,> 99.5 µM,CCn1cc(-c2c[nH]c3ncccc23)nc(N2CC[C@@H](CO)C2)c1=O
7,> 25 µM,NCCc1csc2cc(C(=O)Nc3cc([C@H]4CCOC4)ccn3)ccc12
8,21 µM,O=C(Nc1ccc2c(c1)CNC2)c1cc(Cl)cc(C(F)(F)F)n1
9,> 25 µM,CC1(c2nc(C(=O)Nc3cc(-c4cccnc4)ccn3)no2)CC1
10,> 99.5 µM,Cc1cc(-c2cccc([C@H](NC(=O)OCc3ccccc3)C(=O)Nc3cccc(CN)c3)c2)[nH]n1
11,2.34 µM,CC(C)c1ccc(Cl)cc1C(=O)Nc1ccc2c(c1)CNC2
12,> 25 µM,COc1ccc(OC)c([C@H]2CCCN2C(=O)Nc2ccc3c(c2)CNC3)c1
13,> 99.5 µM,Cc1oc2nc(-c3cc(Cl)cc(NC(=O)OCc4ccccc4)c3)ccc2c1C(=O)O
14,13.1 µM,COCCCN1Cc2ccc(NC(=O)c3cc(Cl)cc4[nH]ncc34)cc2C1
15,> 99.5 µM,Cc1c(C(=O)Nc2ccc(CN)cc2)cc(C2CC2)n1C
16,95.2 µM,O=C(Nc1cc(Cl)cc(-c2cn(C3CCCC3)nc2C(=O)O)c1)OCc1ccccc1
17,> 50.2 µM,O=Cc1ccc(N2CCC(C(=O)NCCc3ccccc3[N+](=O)[O-])CC2)cc1
18,22.4 µM,O=C(Nc1ccc2c(c1)CNC2)c1n[nH]c(=O)c2ccccc12
19,> 99.5 µM,CCn1nccc1-c1cccc([C@@H](NC(=O)OCc2ccccc2)C(=O)Nc2cccc(CN)c2)c1
20,21.1 µM,NCc1cccc(NC(=O)c2cc(OCc3ccccc3)ccc2CNC(=O)OCc2ccccc2)c1
21,> 99.5 µM,CCn1c(=O)c(N2CC[C@H](CO)C2)nc2ccc(C(=O)NCc3ccccc3)cc21

row,IC50,SMILES
1,> 99.5 µM,NCc1cccc(NC(=O)[C@@H]2[C@H](N)[C@@H]3CCCCC[C@@H]32)c1
2,> 99.5 µM,O=C(O)Cc1cc2c(c(Cc3c[nH]c4ccc(Cl)cc34)c1)OCC2
3,> 99.5 µM,N#Cc1cc(F)cc(N2CC[C@H](CO)C2)c1
4,10.9 µM,Cn1nc(CNc2ccc3c(c2)CNC3)cc1C1CC1
5,> 99.5 µM,CC(C)n1cc(CNC(=O)[C@@H](NC(=O)OCc2ccccc2)c2ccc(OCc3ccccc3)cc2)cn1
6,> 99.5 µM,CN1CCN(C2CCN(C(=O)c3cc(C=O)n(C)c3)CC2)CC1
7,> 25 µM,COC(=O)N1CCc2cc(NC(=O)c3cc(C4CC4)n(C)c3C)ccc21
8,> 99.5 µM,c1cncc(CC2CN(Cc3n[nH]c4ccccc34)C2)c1
9,> 99.5 µM,O=C(N[C@@H](C(=O)NCc1cccnc1)c1ccc(OCc2ccccc2)cc1)OCc1ccccc1
10,> 25 µM,O=C(Nc1cc(-c2cccnc2)ccn1)c1c[nH]c2ncccc12
11,81 µM,c1ccc2c(CNCc3ccc(-c4cscn4)cc3)c[nH]c2c1
12,18.9 µM,C=C1C[C@H](c2cc(Cl)cc(NC(=O)OCc3ccccc3)c2)[C@@H](c2cccc(-c3nn[nH]n3)c2)C1
13,> 99.5 µM,O[C@@H]1CN(Cc2c[nH]c3ccccc23)C[C@H]1c1c[nH]c2ccccc12
14,0.188 µM,CCCn1ncc2c(C(=O)Nc3ccc4c(c3)CNC4)cc(Cl)cc21
15,> 99.5 µM,O=C(Nc1cc(Cl)cc(C(=O)N[C@H](c2nn[nH]n2)C2CNC2)c1)OCc1ccccc1
16,9.89 µM,c1ccc2sc(C3CCN(Cc4c[nH]c5ccccc45)CC3)nc2c1
17,> 99.5 µM,Clc1ccc2[nH]cc(Cc3ccc4c(c3)CNC4)c2c1
18,1.67 µM and 2.5 µM,O=C(Nc1ccc2c(c1)CNC2)c1ccc2[nH]ccc2c1
19,> 99.5 µM,COc1ccc(CNC(=O)[C@@H](NC(=O)OCc2ccccc2)c2ccc(OCc3ccccc3)cc2)cn1
20,> 99.5 µM,O=C(Nc1cc(Cl)cc(C(=O)Nc2ccc3c(c2)C[C@H](O)C3)c1)OCc1ccccc1
